Data published in patent US10617677B2, “Nuclear transport modulators and uses thereof” (Biogen MA Inc., priority 2012, dated 2020).
One block for each compound: values may come before it.

Tests used:
[1] = Brain to plasma ratio (B:P) in mice; format: in vivo
Description: Brain tissue following collection was rinsed with cold saline, dried on filter paper, weighed and snap-frozen by placing on dry ice. All samples were stored frozen at approximately −80° C. until analysis. […] Plasma samples were treated with the identical method (except homogenization step) and concentration of compound in either matrix was calculated based on the generated standard curves.

[2] = Pharmacokinetics (plasma AUCInf) in mice; format: in vivo; conditions: 10 mg/kg po
Description: Blood was collected from mice (N=3) to contribute to the total of 10 time points (pre-dose, 5 min, 15 min, 30 min, 1 hour, 2 hours, 4 hours, 8 hours, 12 hours and 24 hours post dose). Mice were bled on a rotating basis, each mouse contributing 3 time points to the blood collection. At the designated time points, animals were anaesthetized under isoflurane, and approximately 110 μL of blood per time point was collected via retro-orbital puncture into pre-cooled K2EDTA (anti-coagulant) tubes. Blood samples were put on wet ice and centrifuged (2000 g, 5 min at 4° C.) to obtain plasma within 30 minutes of sample collection. All samples were stored frozen at approximately −80° C. until analysis. Prior to analysis, samples were mixed with internal standard (dexamethasone) in acetonitrile, vortexed, centrifuged, and supernatant was injected for analysis. Concentration of compounds in plasma was determined using LC-MS-MS instrumentation (API 4000, Triple Quadruple with electrospray ionization; Acuity Ultra Performance Liquid Chromatography column C18, with MeOH and formic acid as organic solvents). PK parameters including but not limited to Tmax, Cmax, t1/2, AUClast, AUCInf were calculated using WinNonlin Professional 6.2 software package, non-compartmental pharmacokinetic model NCA200.

IMQ-induced psoriasis = assay: Imiquimod (IMQ)-induced dermal inflammation/psoriasis model, Study 2; format: in vivo, mice; conditions: Compound 2 2.5 mg/kg, cyclophosphamide 10 mg/kg
Description: Forty (40) male BALB/c mice (Biological E Limited, Hyderabad (CPCSEA registration number: 36/99/CPCSEA)) were divided into four (4) groups consisting of ten (10) mice each. Animals were randomized based on their body weight. The groups were designated as Group-I (Naïve), Group-II (IMQ; vehicle (PEG 400 and HPBCD)), Group-III (IMQ; Compound 2 (2.5 mg/kg)) and […] (IMQ; cyclophosphamide (10 mg/kg)).
A small area on the dorsum of each mouse was shaved, ensuring that these areas were of equal size/area. Psoriasis was induced in Groups II to IV by topical application of 50 mg of IMQ cream daily from Day 1 to Day 6 on the dorsum of the animals. On Day 1 and Day 2 of the study, four hours after topical application of IMQ, Compound 2 or positive control (cyclophosphamide) or vehicle were administered to animals in pertinent groups. Of note, animals in Group II and Group III were subjected to subcutaneous injections, whereas animals in Group IV received oral administration. The Compound 2, vehicle and cyclophosphamide treatment was terminated on Day 2. These groups of animals were maintained on daily IMQ treatments until Day 6. On Day 7, the psoriasis-induced animals were re-randomized into 3 groups consisting of 10 animals each based on Cumulative Disease Activity Index (CDAI). From Day 7 to Day 9, animals received vehicle or positive control or Compound 2. Of note, on these days animals were not treated with IMQ. From Day 10 to Day 14, the animals were treated alternatively with IMQ (Days 10, 12 and 14), or vehicle, positive control or Compound 2 (Days 11, 13).
All animals were observed daily for a period of 16 days for gross observations, body weight and feed and water intake. On Days 1 and 2, scorings of erythema, scaling, folding and thickening of skin were recorded 2 hours after administration of vehicle/positive control/test compounds, and on Days 3 to 14 scorings were recorded 4 hours after IMQ application, or administration of positive control, vehicle or Compound 2.
Vehicle was prepared by dissolving 40 mg of HPBCD in 70.0 mL of distilled water. Compound 2 was prepared by dissolving 3.59 mg in 0.5% PVP and 0.5% Pluronic. Cyclophosphamide was prepared by dissolving 500 mg of CMC in 100 mL distilled water.
The experimental results shown in Table 10 are expressed as mean±SEM. Data was assessed using one-way ANOVA, and post hoc analysis was performed using Dunnett's test.

NF-κB = NF-κB transcriptional activity in TNFα-induced HeLa cells; format: cell-based; conditions: Homo sapiens, 1 h pre-treatment, then 4 h of 20 ng/mL TNFα, average of three experiments, read-out: IC50, inhibition of NF-κB transcriptional activity
Description: The compounds were tested on HeLa (adenocarcinoma) cells to quantify their ability to inhibit NF-κB transcriptional activity. NF-κB activity was induced in HeLa cells by TNFα, and then the compounds were added to inhibit the induced NF-κB activity. Half maximal inhibitory concentrations (IC50) of several compounds, namely Compound 1, Compound 2 and Compound 12, were determined by dose response studies.
HeLa cells were plated in a 12-well plate (200,000 cells/well) and cultured in Eagle's Minimal Essential medium (EMEM) from Lonza supplemented with 10% heat-inactivated fetal bovine serum (Invitrogen) and 50 μg/mL penicillin/streptomycin (Invitrogen), and were left overnight to attach. Cells were pre-treated with serial diluted (started at 30 µM; 1:3 dilution) compounds for 1 h and then exposed to 20 ng/mL TNFα (Peprotech) for 4 h in serum free media. After the treatment, the cells were washed with PBS (Invitrogen), and lysed with RIPA buffer (Themo Scientific). The transcription activity of NF-κB in the cells was measured by Chemiluminescent Transcription Factor Assay kit (Thermo Scientific Catalog #89859), according to the manufacturer's instruction. Briefly, 1.5 mg/mL of RIPA lysed whole cell extract from each treatment were incubated in a 96-well plate bound with NF-κB biotinylated-consensus sequence. The active NF-κB transcription factor bound to the consensus sequence was incubated with NF-κB p65 primary antibody and then with a secondary HRP-conjugated antibody. A chemiluminescent substrate was added to the wells and the resulting signal was detected using a luminometer. Three separate experiments were analyzed for each concentration of the IC50 curves. XLFit model 205 was used to calculate IC50 curves.
Inhibition of NF-κB transcriptional activity was measured by serial dilutions of Compound 1, Compound 2 and Compound 12 after 1 h of compound pre-treatment followed by 4 h of 20 ng/mL TNFα exposure. Three independent experiments were scored for each concentration, with the average being presented here.

A549 xenograft tumors = assay: A549 lung carcinoma xenograft in SCID mice; format: in vivo; conditions: for mean tumor volume: 5 mg/kg IP Days 1, 15
Description: The A549 cell line was derived from explant culture of alveolar carcinoma tissue from a person. The cells were grown in Ham's F12-K tissue culture media with 10% fetal calf serum and 1% penicillin/streptomycin. Cells were routinely trypsinized and passaged 1:10. Thirty-two (32) female CB-17 SCID mice (Charles River Labs strain code 236), aged 5 to 6 weeks were used with a mean pre-treatment body weight of 16.3 grams. Mice were divided into four (4) groups of eight (8) prior to the initiation of treatment based on tumor volume. On the day of implantation, cells were washed in PBS, trypsinized and resuspended in complete media to a density of 2×10^7 cells/mL prior to being mixed with an equal volume of Matrigel. This mixture was then inoculated subcutaneously into mice in a volume of 0.1 mL using a 23G needle.
Animal weights and condition were recorded daily, and tumors were measured on Mondays, Wednesdays and Fridays with micro-calipers, and tumor volume was calculated as (length×width×width)/2.
Animals with weight loss of more than 20% of their starting weight were euthanized. Mice with weight loss of more than 15% of their starting weight were not treated again until weight loss recovered to less than 5% of their starting weight. Any animals with a tumor volume of more than 1500 mm^3 were euthanized.
Dosing solutions were prepared fresh on each day of dosing. Compound 2 was supplied as a lyophilized powder containing 69.61% Compound 2 with the balance made up of Pluronic F-68 and PVP K29/32. This was prepared by dissolving the lyophilized powder in sterile water. Cisplatin was dissolved at 5 mg/mL in DMSO and diluted 1:10 in sterile water for injection. All test articles were administered in a volume of 0.1 mL/10 g body weight.
Statistical differences between treatment groups were determined using Mann-Whitney Rank Sum or ANOVA tests with a critical value of 0.05.

SMILES: O=P1(N(CCCl)CCCl)NCCCO1 (stereo not drawn) [cyclophosphamide, reference compound]
Rate of reduction of DAI, % change from 1st dose administration (IMQ-induced psoriasis; Day 7, 4 hr. post-IMQ/drug administration readings): 23.3%
Rate of reduction of DAI, % change from 1st dose administration (IMQ-induced psoriasis; Day 7, pre-IMQ/drug administration readings): 0.0%
Rate of reduction of DAI, % change from 1st dose administration (IMQ-induced psoriasis; Day 8, 4 hr. post-IMQ/drug administration readings): 20.9%
Rate of reduction of DAI, % change from 1st dose administration (IMQ-induced psoriasis; Day 8, pre-IMQ/drug administration readings): 16.3%
Rate of reduction of DAI, % change from 1st dose administration (IMQ-induced psoriasis; Day 9, 4 hr. post-IMQ/drug administration readings): −41.9%
Rate of reduction of DAI, % change from 1st dose administration (IMQ-induced psoriasis; Day 9, pre-IMQ/drug administration readings): −39.5%
Rate of reduction of DAI, % change from 1st dose administration (IMQ-induced psoriasis; Day 10, 4 hr. post-IMQ/drug administration readings): −86.0%
Rate of reduction of DAI, % change from 1st dose administration (IMQ-induced psoriasis; Day 10, pre-IMQ/drug administration readings): −79.1%
Rate of reduction of DAI, % change from 1st dose administration (IMQ-induced psoriasis; Day 11, 4 hr. post-IMQ/drug administration readings): −25.6%
Rate of reduction of DAI, % change from 1st dose administration (IMQ-induced psoriasis; Day 11, pre-IMQ/drug administration readings): −25.6%
Rate of reduction of DAI, % change from 1st dose administration (IMQ-induced psoriasis; Day 12, 4 hr. post-IMQ/drug administration readings): −34.9%
Rate of reduction of DAI, % change from 1st dose administration (IMQ-induced psoriasis; Day 12, pre-IMQ/drug administration readings): −39.5%
Rate of reduction of DAI, % change from 1st dose administration (IMQ-induced psoriasis; Day 13, 4 hr. post-IMQ/drug administration readings): −32.6%
Rate of reduction of DAI, % change from 1st dose administration (IMQ-induced psoriasis; Day 13, pre-IMQ/drug administration readings): −25.6%
Rate of reduction of DAI, % change from 1st dose administration (IMQ-induced psoriasis; Day 14, 4 hr. post-IMQ/drug administration readings): −32.6%
Rate of reduction of DAI, % change from 1st dose administration (IMQ-induced psoriasis; Day 14, pre-IMQ/drug administration readings): −34.9%
Rate of reduction of DAI, % change from 1st dose administration (IMQ-induced psoriasis; Day 15, pre-IMQ/drug administration readings): −41.9%

SMILES: N.N.[Cl][Pt][Cl] [cisplatin, reference compound]
tumor growth versus vehicle control group (mean AUC of tumor volume, one-way ANOVA) (A549 xenograft tumors; Compound 2 5 or 10 mg/kg PO, cisplatin 5 mg/kg IP): no statistically significant reduction in tumor growth
mean tumor volume (A549 xenograft tumors; Day 1): 104 mm^3
mean tumor volume (A549 xenograft tumors; Day 29): 1136 mm^3

Further lines, results first:

levels in the brain ([1]; dosed po): below the quantitation limit
AUCInf [2]: below the limit of detection
SMILES: COc1cc(-c2ncn(/C=C\C(=O)OC(C)C)n2)cc(C(F)(F)F)c1 [Compound X-1]

IC50 (NF-κB): 1460 nM
SMILES: O=C(/C=C\n1cnc(-c2cc(C(F)(F)F)cc(C(F)(F)F)c2)n1)NNC(=O)C(=O)N1CCOCC1 [Compound 12, (Z)-3-(3-(3,5-bis(trifluoromethyl)phenyl)-1H-1,2,4-triazol-1-yl)-N′-(2-morpholino-2-oxoacetyl)acrylohydrazide]

B:P ([1]; mice, 10 mg/kg po, 2 hours post-dose): 5.0
SMILES: O=C(/C=C\n1cnc(-c2cc(C(F)(F)F)cc(C(F)(F)F)c2)n1)N1CC(F)(F)C1 [Compound X-3]
